Experimental data reported in ChEMBL document CHEMBL1201862, “PubChem BioAssay data set” (2004).
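Tested at 5 concentrations; 48 h exposure; 96-well plates; endpoints linearly interpolated, else capped at highest concentration. GI50 is the concentration that inhibits growth by half.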 Calls of active or inactive are those of the source. No stated cut-off is given here; in the data, active = GI50 up to about 1.1 µM and inactive = higher.

Experiments:
Assay in all cases: growth of human tumour cells (NCI), 48 h
DU-145 = system: DU-145
OVCAR-4 = system: OVCAR-4
CCRF-CEM = system: CCRF-CEM
A549 = system: A549
SNB-75 = system: SNB-75
HCT-15 = system: HCT-15
A498 = system: A498
RPMI-8226 = system: RPMI-8226
UACC-62 = system: UACC-62
UO-31 = system: UO-31
MOLT-4 = system: MOLT-4
HOP-62 = system: HOP-62
TK-10 = system: TK-10
LOX IMVI = system: LOX IMVI
NCI-H460 = system: NCI-H460
K562 = system: K562
COLO 205 = system: COLO 205
NCI-H226 = system: NCI-H226
RXF 393 = system: RXF 393
SNB-19 = system: SNB-19
SK-MEL-2 = system: SK-MEL-2
T47D = system: T47D
SF-295 = system: SF-295
SF-539 = system: SF-539
MDA-N = system: MDA-N
MCF7 = system: MCF7
MDA-MB-435 = system: MDA-MB-435
NCI/ADR-RES = system: NCI/ADR-RES
OVCAR-5 = system: OVCAR-5
SK-OV-3 = system: SK-OV-3
Malme-3M = system: Malme-3M
SK-MEL-5 = system: SK-MEL-5
OVCAR-8 = system: OVCAR-8
SN12C = system: SN12C
Hs-578T = system: Hs-578T
SR = system: SR
KM12 = system: KM12
CAKI-1 = system: CAKI-1
UACC-257 = system: UACC-257
M14 = system: M14
OVCAR-3 = system: OVCAR-3
PC-3 = system: PC-3
SK-MEL-28 = system: SK-MEL-28
EKVX = system: EKVX
786-0 = system: 786-0
HT-29 = system: HT-29
BT-549 = system: BT-549
HCT-116 = system: HCT-116
IGROV-1 = system: IGROV-1
HOP-92 = system: HOP-92
HL-60 = system: HL-60
SF-268 = system: SF-268
NCI-H522 = system: NCI-H522
SW-620 = system: SW-620
U-251 = system: U-251
ACHN = system: ACHN
HCC 2998 = system: HCC 2998
NCI-H23 = system: NCI-H23
MDA-MB-231 = system: MDA-MB-231

Measured: GI50

NC(=S)N1N=C(c2ccc3c(c2)CCC3)CC1c1ccccc1 (stereo not drawn)
13.8 µM: HCT-15
inactive: DU-145 23 µM | OVCAR-4 7.18 µM | CCRF-CEM 23.1 µM | A549 23.4 µM | SNB-75 18.1 µM | A498 12.5 µM | RPMI-8226 13.6 µM | UACC-62 17.6 µM | UO-31 29.9 µM | MOLT-4 8.15 µM | HOP-62 24.9 µM | TK-10 18.1 µM | LOX IMVI 31.5 µM | NCI-H460 22.2 µM | K562 13.1 µM | COLO 205 18.3 µM | NCI-H226 34.2 µM | RXF 393 2.88 µM | SNB-19 34.6 µM | SK-MEL-2 13.7 µM | T47D 1.64 µM | SF-295 15.7 µM | SF-539 18.3 µM | MDA-N 22.9 µM | MCF7 8.45 µM | MDA-MB-435 20.2 µM | NCI/ADR-RES 15.6 µM | OVCAR-5 32.2 µM | SK-OV-3 28.6 µM | Malme-3M 22.6 µM | SK-MEL-5 12.8 µM | OVCAR-8 28.3 µM | SN12C 24.7 µM | Hs-578T 6.12 µM | SR 25.3 µM | KM12 11.4 µM | CAKI-1 21.3 µM | UACC-257 21.4 µM | M14 26.7 µM | OVCAR-3 17.4 µM | PC-3 19.6 µM | SK-MEL-28 41.5 µM | EKVX 5.08 µM | 786-0 22.6 µM | HT-29 16.4 µM | BT-549 22.5 µM | HCT-116 22 µM | IGROV-1 15 µM | HOP-92 23.4 µM | HL-60 7.93 µM | SF-268 30.8 µM | NCI-H522 6.27 µM | SW-620 33.8 µM | U-251 20.4 µM | ACHN 27.9 µM | HCC 2998 16.1 µM | NCI-H23 25.1 µM

CCOc1ccc(N/C(=C(/C(Cl)=C(/Cl)NCCO)[N+](=O)[O-])n2nnc3ccccc32)cc1
inactive: DU-145 12.9 µM | OVCAR-4 16.7 µM | CCRF-CEM 5.57 µM | A549 44 µM | SNB-75 60.1 µM | A498 31 µM | RPMI-8226 30.7 µM | UACC-62 21.9 µM | UO-31 19.5 µM | MOLT-4 5.96 µM | HOP-62 66.7 µM | NCI-H460 48 µM | K562 20.8 µM | COLO 205 16.1 µM | NCI-H226 > 100 µM | RXF 393 16.2 µM | SNB-19 51.1 µM | SK-MEL-2 35 µM | T47D 18.2 µM | SF-295 28 µM | SF-539 34.5 µM | MDA-N 28.9 µM | MCF7 19 µM | MDA-MB-435 16.4 µM | NCI/ADR-RES 25.2 µM | OVCAR-5 35.6 µM | SK-OV-3 12.8 µM | Malme-3M 18.4 µM | OVCAR-8 18.3 µM | SN12C 19.8 µM | Hs-578T 15.2 µM | KM12 24.8 µM | CAKI-1 14.4 µM | UACC-257 41.3 µM | M14 30.4 µM | OVCAR-3 18.1 µM | PC-3 25.7 µM | SK-MEL-28 18.7 µM | EKVX 25.2 µM | 786-0 29.6 µM | HT-29 29.9 µM | BT-549 18.5 µM | HCT-116 37.7 µM | MDA-MB-231 20.6 µM | SF-268 20.1 µM | SW-620 19.2 µM | U-251 21.8 µM | ACHN 19.5 µM | HCC 2998 79.4 µM | NCI-H23 17.5 µM
20.5 µM: HCT-15

CC1C2CC(CC2(C)O)C1(C)C (stereo not drawn)
inactive: DU-145 > 100 µM | OVCAR-4 > 100 µM | CCRF-CEM > 100 µM | A549 > 100 µM | SNB-75 > 100 µM | A498 > 100 µM | UACC-62 > 100 µM | UO-31 > 100 µM | MOLT-4 > 100 µM | HOP-62 > 100 µM | TK-10 > 100 µM | NCI-H460 > 100 µM | K562 > 100 µM | COLO 205 > 100 µM | NCI-H226 > 100 µM | RXF 393 > 100 µM | SNB-19 > 100 µM | T47D > 100 µM | SF-295 > 100 µM | SF-539 > 100 µM | MDA-N > 100 µM | MCF7 > 100 µM | MDA-MB-435 > 10 µM | OVCAR-5 > 100 µM | SK-OV-3 > 100 µM | Malme-3M > 100 µM | SK-MEL-5 > 100 µM | OVCAR-8 > 100 µM | SN12C > 100 µM | Hs-578T > 100 µM | SR > 100 µM | KM12 > 100 µM | CAKI-1 > 100 µM | UACC-257 > 100 µM | M14 > 100 µM | OVCAR-3 > 100 µM | PC-3 > 100 µM | SK-MEL-28 > 100 µM | EKVX > 100 µM | 786-0 > 100 µM | HT-29 > 100 µM | BT-549 > 100 µM | HCT-116 > 100 µM | IGROV-1 > 100 µM | HOP-92 > 100 µM | HL-60 > 100 µM | MDA-MB-231 > 100 µM | SF-268 > 100 µM | NCI-H522 > 100 µM | SW-620 > 100 µM | U-251 > 100 µM | ACHN > 100 µM | HCC 2998 > 100 µM | NCI-H23 > 100 µM
